In ChEMBL document CHEMBL4406824, “Phenolic N-monosubstituted carbamates: Antitubercular and toxicity evaluation of multi-targeting compounds” (Eur J Med Chem, 2019):
Converted amounts (≈) assume the structure as drawn.

Key:
[1] = tested on: Mycobacterium tuberculosis; assay: Antimycobacterial activity against Mycobacterium tuberculosis H37Ra ITM-M006710 after 48 hr by resazurin dye based microdilution method; assay type: functional; details: H37Ra ITM-M006710, 48 h
[2] = tested on: Mycolicibacterium aurum; assay: Antimycobacterial activity against Mycobacterium aurum DSM 43999 after 72 hr by resazurin dye based microdilution method; assay type: functional; details: DSM 43999, 72 h
[3] = tested on: Mycolicibacterium smegmatis; assay: Antimycobacterial activity against Mycobacterium smegmatis DSM 43465 after 120 hr by resazurin dye based microdilution method; assay type: functional; details: DSM 43465, 120 h
[4] = in vitro; details: human, HepG2 cells
Description: Selectivity index, ratio of IC50 for human HepG2 cells to MIC for antimycobacterial activity against Mycobacterium tuberculosis H37Rv

[5] = tested on: HepG2; assay: Cytostatic activity against human HepG2 cells preincubated for overnight in serum free medium followed by compound wash out and further incubated for 72 hrs in presence of serum by MTT assay; assay type: ADME, cell-based
[6] = tested on: Mycobacterium kansasii; assay: Antimycobacterial activity against Mycobacterium kansasii 6509/96 after 21 days; assay type: functional; details: 6509/96, 504 h
[7] = tested on: Mycobacterium kansasii; assay: Antimycobacterial activity against Mycobacterium kansasii 6509/96 after 14 days; assay type: functional; details: 6509/96, 336 h
[8] = tested on: Mycobacterium kansasii; assay: Antimycobacterial activity against Mycobacterium kansasii 235/80 after 7 days; assay type: functional; details: 235/80, 168 h
[9] = tested on: Mycobacterium avium; assay: Antimycobacterial activity against Mycobacterium avium 330/88 after 14 days; assay type: functional; details: 330/88, 336 h
[10] = tested on: Mycobacterium kansasii; assay: Antimycobacterial activity against Mycobacterium kansasii 235/80 after 14 days; assay type: functional; details: 235/80, 336 h
[11] = tested on: Mycobacterium kansasii; assay: Antimycobacterial activity against Mycobacterium kansasii 6509/96 after 7 days; assay type: functional; details: 6509/96, 168 h
[12] = tested on: Mycobacterium tuberculosis H37Rv; assay: Inhibition of recombinant Mycobacterium tuberculosis H37Rv ICL1 expressed in Escherichia coli BL21 (DE3) cells at 10 uM using (+)-potassium Ds-threo-isocitrate as substrate by glyoxylate phenyl hydrazone formation assay relative to control
[13] = tested on: Mycobacterium kansasii; assay: Antimycobacterial activity against Mycobacterium kansasii 235/80 after 21 days; assay type: functional; details: 235/80, 504 h
[14] = tested on: HepG2; assay: Cytotoxicity against human HepG2 cells assessed as reduction in cell viability after overnight incubation by MTT assay; assay type: cell-based
[15] = tested on: Mycobacterium tuberculosis; assay type: functional; details: H37Rv 331/88, 504 h
[16] = tested on: Mycobacterium tuberculosis; assay type: functional; details: H37Rv 331/88, 336 h
[17] = tested on: Mycobacterium avium; assay: Antimycobacterial activity against Mycobacterium avium 330/88 after 21 days; assay type: functional; details: 330/88, 504 h

SMILES	MIC [1]	MIC [2]	MIC [3]	selectivity ratio [4]	IC50 [5]	MIC [6]	MIC [7]	MIC [8]	MIC [9]	MIC [10]	MIC [11]	inhibition [12]	MIC [13]	IC50 [14]	MIC [15]	MIC [16]	MIC [17]
CO[C@H]1/C=C/O[C@@]2(C)Oc3c(C)c(O)c4c(O)c(c(/C=N/N5CCN(C)CC5)c(O)c4c3C2=O)NC(=O)/C(C)=C\C=C\[C@H](C)[C@H](O)[C@@H](C)[C@@H](O)[C@@H](C)[C@H](OC(C)=O)[C@@H]1C [RIFAMPIN]	0.0005 to 0.009 µM	0.47 µM	12.5 to 25 µg/mL	–	–	–	–	–	–	–	–	–	–	–	–	–	–
O=C(NC1CCCCC1)Oc1ccc(Cl)cc1	500 µg/mL	≥ 500 µg/mL	≥ 500 µg/mL	> 0.3	> 125 µM	250 µM (≈ 63.4 µg/mL)	250 µM (≈ 63.4 µg/mL)	250 µM (≈ 63.4 µg/mL)	500 µM (≈ 127 µg/mL)	500 µM (≈ 127 µg/mL)	125 µM (≈ 31.7 µg/mL)	16%	1000 µM (≈ 254 µg/mL)	> 125 µM	500 µM (≈ 127 µg/mL)	500 µM (≈ 127 µg/mL)	1000 µM (≈ 254 µg/mL)
O=C(O)CC[N+](=O)[O-]	–	–	–	–	–	–	–	–	–	–	–	25%	–	–	–	–	–
O=C(NCc1ccccc1)Oc1ccccc1C(=O)Nc1ccccc1	15.6 µg/mL	31.2 µg/mL	31.2 µg/mL	> 1	54.3 µM	250 µM (≈ 86.6 µg/mL)	250 µM (≈ 86.6 µg/mL)	125 µM (≈ 43.3 µg/mL)	125 µM (≈ 43.3 µg/mL)	250 µM (≈ 86.6 µg/mL)	125 µM (≈ 43.3 µg/mL)	8%	250 µM (≈ 86.6 µg/mL)	> 125 µM	125 µM (≈ 43.3 µg/mL)	125 µM (≈ 43.3 µg/mL)	125 µM (≈ 43.3 µg/mL)
CC[C@@H](CO)NCCN[C@@H](CC)CO [ETHAMBUTOL]	1.8 µM	0.9 µM	1.8 µM	–	–	–	–	–	–	–	–	–	–	–	–	–	–
O=C(NCc1ccccc1)Oc1ccc(Cl)cc1	31.2 µg/mL	125 µg/mL	152 µg/mL	> 0.5	> 125 µM	500 µM (≈ 131 µg/mL)	250 µM (≈ 65.4 µg/mL)	125 µM (≈ 32.7 µg/mL)	500 µM (≈ 131 µg/mL)	250 µM (≈ 65.4 µg/mL)	125 µM (≈ 32.7 µg/mL)	14%	500 µM (≈ 131 µg/mL)	> 125 µM	250 µM (≈ 65.4 µg/mL)	125 µM (≈ 32.7 µg/mL)	500 µM (≈ 131 µg/mL)
O=C(NC12CC3CC(CC(C3)C1)C2)Oc1ccccc1C(=O)Nc1ccccc1	250 µg/mL	≥ 250 µg/mL	250 µg/mL	> 2	233 µM	250 µM (≈ 97.6 µg/mL)	250 µM (≈ 97.6 µg/mL)	125 µM (≈ 48.8 µg/mL)	125 µM (≈ 48.8 µg/mL)	125 µM (≈ 48.8 µg/mL)	125 µM (≈ 48.8 µg/mL)	9%	125 µM (≈ 48.8 µg/mL)	> 250 µM	125 µM (≈ 48.8 µg/mL)	125 µM (≈ 48.8 µg/mL)	125 µM (≈ 48.8 µg/mL)
O=C(Nc1ccccc1)Oc1ccc(Cl)cc1	7.81 µg/mL	15.6 µg/mL	15.6 µg/mL	> 0.3	> 125 µM	500 µM (≈ 124 µg/mL)	250 µM (≈ 61.9 µg/mL)	125 µM (≈ 31 µg/mL)	500 µM (≈ 124 µg/mL)	250 µM (≈ 61.9 µg/mL)	125 µM (≈ 31 µg/mL)	14%	500 µM (≈ 124 µg/mL)	> 125 µM	500 µM (≈ 124 µg/mL)	250 µM (≈ 61.9 µg/mL)	1000 µM (≈ 248 µg/mL)
Nc1ccc(C(=O)O)c(O)c1 [AMINOSALICYLIC ACID]	–	–	–	35.8	–	500 µM (≈ 76.6 µg/mL)	125 µM (≈ 19.1 µg/mL)	125 µM (≈ 19.1 µg/mL)	32 µM (≈ 4.9 µg/mL)	1000 µM (≈ 153 µg/mL)	32 µM (≈ 4.9 µg/mL)	0%	> 1000 µM	–	62.5 µM (≈ 9.57 µg/mL)	62.5 µM (≈ 9.57 µg/mL)	125 µM (≈ 19.1 µg/mL)
NNC(=O)c1ccncc1 [ISONIAZID]	0.91 to 1.82 µM	3.91 µg/mL	15.6 µg/mL	> 250	–	8 µM (≈ 1.1 µg/mL)	8 µM (≈ 1.1 µg/mL)	> 250 µM	> 250 µM	> 250 µM	4 µM (≈ 0.549 µg/mL)	0%	> 250 µM	> 250 µM	1 µM (≈ 0.137 µg/mL)	0.5 µM (≈ 0.0686 µg/mL)	> 250 µM
